# Measurements reported in ChEMBL document CHEMBL1143021, “Synthesis of xanthone derivatives with extended pi-systems as alpha-glucosidase inhibitors: insight into the probable binding mode” (Bioorg Med Chem, 2007).
# Assay: Inhibition of yeast alpha glucosidase at pH 6.8
# Parameters: species or system Saccharomyces cerevisiae
row,Structure (SMILES),IC50 [µM]
1,O=c1c2cc3cccc(O)c3cc2oc2cc(O)cc(O)c12,8
2,O=c1c2c(O)cc(O)cc2oc2ccc3ccccc3c12,39.9
3,OC[C@H]1NC(O)C[C@@H](O)[C@@H]1O (stereo not given in full),26.4
4,O=c1c2cc3ccccc3cc2oc2c([N+](=O)[O-])c(O)cc(O)c12,20.1
5,Oc1cc(O)c2c(c1)Oc1cc3ccccc3cc1C2,27.8
6,O=c1c2cc3ccccc3cc2oc2cc(O)cc(O)c12,9.3
7,COc1cc(O)c2c(=O)c3cc4ccccc4cc3oc2c1,31.3
8,Oc1cc(O)c2c(c1)Oc1ccc3ccccc3c1C2,34.9
9,O=c1c2cc3cc(O)ccc3cc2oc2cc(O)cc(O)c12,5.8
10,O=c1c2ccccc2oc2cc(O)cc(O)c12,161
